As usually defined, the Ki is a dissociation constant, usually derived from enzyme kinetics or from competition with a known ligand. Lower therefore signals higher affinity. Usually IC50 stands for the midpoint of a concentration-inhibition curve. Read a high IC50 as weaker potency.

SMILES strings stand for the structures. Where a name gives a salt, the structure may show the parent alone.

For the first assay, the target named is Glutamate NMDA receptor. Nature of the assay: In vitro radioligand binding assay for the N-methyl-D-aspartate glutamate receptor is performed using [3H]MK-801 and rat brain membrane suspensions.
For the molecule `CCc1cccc(NC(=N)Nc2cc(Cl)cc(Cl)c2)c1`, the affinity corresponds to a Ki of 115 nM. As for `CCc1cccc(NC(=N)Nc2ccccc2C)c1`, the affinity corresponds to a Ki of 768 nM. `CCc1cccc(NC(=N)Nc2ccccc2CC)c1` showed an inhibitory constant (Ki) of 350 nM.

With `CCc1cccc(N(C)C(=N)Nc2ccccc2C(C)C)c1`, the affinity corresponds to a Ki of 564 nM. Compared with the last molecule, the Ki is about 1.6-fold higher. On the same count and under the same terms, as for `CCc1cccc(NC(=N)Nc2ccc(Cl)cc2Cl)c1`, the figure is 140 nM; as for `CCc1cccc(N(C)C(=N)Nc2ccc(Cl)c(Cl)c2)c1`, 1280 nM. Molecule `CCc1cccc(N(C)C(=N)Nc2ccccc2Cl)c1` showed an inhibition constant Ki of 386 nM.

Molecule `CCc1cccc(N(C)C(=N)Nc2ccccc2Br)c1` gave an inhibitory constant (Ki) of 265 nM. This Ki and that of the molecule before are within 1.5-fold of each other.

`CCc1cccc(NC(=N)Nc2cc(CC)cc(CC)c2Br)c1` had a Ki of 29 nM. The molecule `CCc1cccc(N(C)C(=N)Nc2cccc(SC)c2)c1` displayed a Ki of 6.4 nM. Same read-out and setting: as for `CCc1cccc(NC(=N)Nc2cc(CC)cc(CC)c2)c1`, the figure is 129 nM. On the same count and under the same terms, the result for `CCc1cccc(NC(=N)Nc2cc(SC)cc(CC)c2Cl)c1` reads 11.8 nM; that for `CCc1cccc(N(C)C(=N)N(C)c2cc(Cl)ccc2Cl)c1`, 72 nM. Take `CCc1cccc(N(C)C(=N)Nc2cccc(Cl)c2Cl)c1`: the Ki worked out at 116 nM.

`CCc1cccc(N(C)C(=N)Nc2cc(C)cc(CC)c2Cl)c1`: the affinity corresponds to a Ki of 78 nM. Consider `CCc1cccc(NC(=N)Nc2cccc(Br)c2)c1`, for which the Ki is 51 nM. This Ki is about 1.5-fold lower than that of the molecule before. Molecule `CCc1cccc(N(C)C(=N)N(C)c2cc(Br)ccc2Br)c1` had a Ki of 27 nM. As for `CCc1cccc(N(C)C(=N)Nc2cccc(Cl)c2)c1`, the inhibition constant (Ki) is 497 nM. As to `CCc1cccc(NC(=N)Nc2ccc(Cl)c(Cl)c2)c1`, the affinity corresponds to a Ki of 204 nM. Still for that read-out and setting: as for `CCc1cccc(N(C)C(=N)N(C)c2cc(CC)ccc2Cl)c1`, the figure is 111 nM. Regarding `CCc1cccc(NC(=N)Nc2cc(Cl)ccc2Cl)c1`, the affinity corresponds to a Ki of 68 nM.

`CCc1cccc(N(C)C(=N)Nc2cc(Cl)ccc2Cl)c1` yielded a Ki of 65 nM. The Ki values of the last two molecules are within 1.5-fold of each other. Molecule `CCc1cccc(N(C)C(=N)Nc2ccccc2I)c1` gave a Ki of 101 nM. `CCc1cccc(NC(=N)Nc2cccc(CC)c2)c1` gave a Ki of 129 nM.

For `CCc1cccc(NC(=N)N(C)c2cc(CC)ccc2Cl)c1`, the Ki is 65 nM. The same measure, in the same setting: as for `CCc1cccc(NC(=N)Nc2cc(CC)cc(CC)c2F)c1`, the figure is 50 nM. On the same count and under the same terms, as for `CCc1cccc(NC(=N)Nc2cccc(Cl)c2)c1`, the figure is 112 nM; as for `CCc1cccc(NC(=N)Nc2ccc(Cl)cc2)c1`, 738 nM. Still for that read-out and setting: as for `CCc1cccc(NC(=N)Nc2cc(C)cc(CC)c2Cl)c1`, the figure is 77 nM; as for `CCc1cccc(N(C)C(=N)Nc2cccc(Br)c2)c1`, 81 nM; as for `CCc1cccc(N(C)C(N)=Nc2cccc3ccccc23)c1` [APTIGANEL HYDROCHLORIDE], 29 nM. For the molecule `CCc1cccc(NC(=N)Nc2c(Cl)cccc2Cl)c1`, the Ki came out at 133 nM. Against the preceding molecule, the Ki is about 4.6-fold higher. The same measure, in the same setting: the result for `CCc1cccc(NC(=N)Nc2cccc(Cl)c2Cl)c1` reads 156 nM. For `CCc1cccc(N(C)C(=N)Nc2ccc(Cl)cc2)c1`, affinity was put at a Ki of 3340 nM.

As to `CCc1cccc(N(C)C(=N)Nc2cc(CC)cc(CC)c2F)c1`, the affinity, expressed as Ki, was 97 nM. Still for that read-out and setting: as for `CCc1cccc(NC(=N)Nc2ccccc2Cl)c1`, the figure is 249 nM. Same read-out and setting: as for `CCc1cccc(NC(=N)Nc2ccccc2C(C)C)c1`, the figure is 230 nM.

Target in a further assay: not listed separately
Briefly: Binding assay for the sigma receptor sites is performed by utilizing [3H]N,N-di-o-tolylguanidine ([3H]DTG) and guinea pig brain membrane suspensions.
Regarding `CCc1cccc(NC(=N)N(C)c2cccc(CC)c2)c1`, the IC50 was found to be 82 nM.

With `CCc1cccc(N(C)C(N)=Nc2cccc3ccccc23)c1` [APTIGANEL HYDROCHLORIDE], the IC50 is 2540 nM. This IC50 lies about 31-fold higher than the previous one.

The record behind these values is ChEMBL document CHEMBL1130271, “Synthesis and pharmacological evaluation of N-(2,5-disubstituted phenyl)-N'-(3-substituted phenyl)-N'-methylguanidines as N-methyl-D-aspartate receptor ion-channel blockers” (J Med Chem, 1997).
